# Measured values published in US12715915B2, “Gout flare prevention methods using IL-1β blockers” (priority 2022, dated 2026).
# Entries after “also recorded” stand apart in the source; their conditions may differ. Where two headings read alike, the source gives them in different places.
# Key:
# IL-1α = target: T1, IL-1α (Homo sapiens, UniProt P01583); details: cited from earlier work
# T1 sequence (P01583 113-271): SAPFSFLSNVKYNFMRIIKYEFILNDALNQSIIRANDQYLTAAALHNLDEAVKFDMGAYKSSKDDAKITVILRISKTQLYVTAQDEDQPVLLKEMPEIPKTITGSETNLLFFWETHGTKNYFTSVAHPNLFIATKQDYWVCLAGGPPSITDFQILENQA
# human IL1β = human IL1β (Homo sapiens, UniProt P01584); details: blocks interaction with IL-1 receptors; cited from earlier work
# [1] = system: adult uncontrolled gout patients; experiment: MIRROR-C: open-label trial of canakinumab prophylaxis to prevent gout flares when initiating pegloticase+MTX; assay type: in vivo, human
# Text: 86. Pegloticase plus methotrexate (approved by FDA in July 2022) is effective at reducing signs/symptoms of uncontrolled gout. In the pivotal trial (MIRROR RCT) the most common adverse event was gout flares which occurred in 54% of patients at month 1 on combination pegloticase and methotrexate. The purpose of this study is to determine if canakinumab is effective for the prevention of gout flares in subjects scheduled to begin KRYSTEXXA® (KRY) (pegloticase) infusions in combination with methotrexate. The most common adverse event that occurs in patients being treated with KRY and methotrexate are gout flares which occurred in 54% of patients at month 1 in the MIRROR RCT. Herein we use canakinumab pretreatment (without corticosteroids, NSAIDs, or colchicine) to reduce the number of gout flares.
# 87 Canakinumab is the drug that is tested herein. It is currently approved by the FDA for the treatment of periodic fever syndromes and active systemic juvenile idiopathic arthritis (SJIA). However, Canakinumab is considered to be experimental in this study. Subjects scheduled (by their treating provider) to receive pegloticase (with methotrexate) receive a single 150 mg injection of subcutaneous canakinumab one week prior to the first scheduled pegloticase infusion. The combination of the drugs is experimental. As shown herein,
# 88. Subjects scheduled (by their treating provider) to receive pegloticase (with methotrexate) receive a single 150 mg injection of subcutaneous canakinumab one week prior to the first scheduled pegloticase infusion. At each infusion, subjects are assessed for gout flares. Canakinumab are provided by the study to subjects without charge. Pegloticase, methotrexate, and other medications are obtained through standard means (patient insurance, patient assistance, etc.) as ordered by treating provider. […] It is assumed that mobilization of gout crystals at the initiation of therapy results in gout flares through the IL-1 inflammasome pathway. A goal of prophylaxis is to reduce the number of flares with initiation. […]
# 89. […] On the day of KRYSTEXXA® administration (i.e., Day 0), the blood pressure, respiratory rate, temperature, and heart rate of patients are measured and patients receive a first administration of KRYSTEXXA® delivered as an intravenous (i.v.) infusion. Every two weeks thereafter during the study (i.e., Day 14, Day 28, Day 42, Day […], Day 98, Day 112, Day 126, Day 140, Day 154, Day 168; also called Week 2, Week 4, Week 6, Week 8, Week 10, Week 12, Week 14, Week 16, Week 18, Week 20, Week 22, Week 24) the blood pressure, respiratory rate, temperature, and heart rate of patients are measured and patients report any gout flares. […]
# [2] = target: IL-1 receptor antagonist (IL-1ra) (Homo sapiens, UniProt P18510); details: cited from earlier work
# Chain of IL-1 receptor antagonist (IL-1ra) (P18510 26-177): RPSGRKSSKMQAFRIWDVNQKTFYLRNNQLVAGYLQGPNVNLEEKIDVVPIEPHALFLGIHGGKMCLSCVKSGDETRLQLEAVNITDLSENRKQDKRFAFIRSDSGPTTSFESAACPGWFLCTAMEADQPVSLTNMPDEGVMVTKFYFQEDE
# [3] = system: gout patients initiating allopurinol; details: cited from earlier work; for risk of gout flares during allopurinol initiation: in vivo
substance,measurement,setting,value
canakinumab,binding to IL-1α,IL-1α,does not bind
same,binding to human IL1β,human IL1β,binds to human IL1β and neutralizes its activity
same,time to resolution of active gout flares after administration,[1]; canakinumab 150 mg s.c.,≤ 48 h
same,treated patients in whom gout flares were prevented,"[1]; canakinumab prophylaxis without corticosteroids, initiation of pegloticase with methotrexate",100%
same,safety of canakinumab prophylaxis with pegloticase+MTX,"[1]; single 150 mg dose, without CS",no new safety signals; also recorded: did not compromise efficacy or safety
same,new gout flares after canakinumab prophylaxis,"[1]; single 150 mg s.c. dose 7 days before first pegloticase infusion, no CS, NSAIDs or colchicine, assessed every 2 wks for 6 mos",No new gout flares; also recorded: prevented gout flares in all patients
same,binding to IL-1 receptor antagonist (IL-1ra),[2],does not bind
same,risk of gout flares during allopurinol initiation,[3],reduces the risk of flares
same,risk of gout flares during allopurinol initiation,[3]; listed as Canakinumab,can reduce subsequent flares
same,prophylaxis against flares compared to colchicine,"[3]; single dose ≥50 mg, initiating allopurinol",superior prophylaxis
